pIC50, pKi: −log10 of the molar value. Counter-ions that a name gives are not always drawn.
Experiments:
full-length β-catenin = full-length β-catenin (Homo sapiens (Human), UniProt P35222); experiment: Streptavidin protein pull-down from SW480 cell lysates; type: binding; conditions: 1 μM
Description: Pull-Down Experiments. Colorectal cancer SW480 cells (70-80% confluency) in T75 flask were lysed first in 1 mL buffer A containing 50 mM Tris (pH 7.4), 150 mM NaCl, 1% Nonidet P-40, 2 mM EDTA, and protease inhibitors. Cell debris was removed by centrifugation at 10,000 g for 20 min at 4° C. To 500 μL SW480 cell lysates was added 1 or 10 μM Biotin-36 and the mixture was incubated at 4° C. for 3 h. Then, 25 μL Streptavidin Sepharose beads (5-1638, Sigma) were added to the lysate mixture and rotated at 4° C. for 2 h. The lysate mixture was centrifuged at 4000 rpm for 2 min at 4° C. The beads were washed with buffer B (20 mM Tris pH 7.4, 150 mM NaCl, 0.1% NP-40) for 4 times. The beads were resuspended in 60 μL of 2×SDS sample buffer. After boiling, the samples were loaded onto 8% SDS polyacrylamide gel for electrophoretic analysis. Separated proteins were transferred onto nitrocellulose membranes for immunoblot analysis. The antibody against β-catenin (610153, BD Biosciences) were incubated with the membranes. IRDye 680LT goat anti-mouse IgG (827-11080, LiCOR) was used as the secondary antibody. The images were detected by the Odyssey Infrared Imaging System (LiCOR). Experiments were performed in duplicate.

β-catenin/BCL9 PPI [1] = molecular target: β-catenin/BCL9 PPI (Homo sapiens (Human), UniProt P35222); experiment: AlphaScreen competitive inhibition assay of β-catenin/BCL9 PPI; type: binding; conditions: mean ± standard deviation (n = 3); for pKi: derived from IC50, read-out: Ki ± SD
β-catenin/BCL9 PPI (Homo sapiens (Human), UniProt P35222), sequence (P35222 whole entry): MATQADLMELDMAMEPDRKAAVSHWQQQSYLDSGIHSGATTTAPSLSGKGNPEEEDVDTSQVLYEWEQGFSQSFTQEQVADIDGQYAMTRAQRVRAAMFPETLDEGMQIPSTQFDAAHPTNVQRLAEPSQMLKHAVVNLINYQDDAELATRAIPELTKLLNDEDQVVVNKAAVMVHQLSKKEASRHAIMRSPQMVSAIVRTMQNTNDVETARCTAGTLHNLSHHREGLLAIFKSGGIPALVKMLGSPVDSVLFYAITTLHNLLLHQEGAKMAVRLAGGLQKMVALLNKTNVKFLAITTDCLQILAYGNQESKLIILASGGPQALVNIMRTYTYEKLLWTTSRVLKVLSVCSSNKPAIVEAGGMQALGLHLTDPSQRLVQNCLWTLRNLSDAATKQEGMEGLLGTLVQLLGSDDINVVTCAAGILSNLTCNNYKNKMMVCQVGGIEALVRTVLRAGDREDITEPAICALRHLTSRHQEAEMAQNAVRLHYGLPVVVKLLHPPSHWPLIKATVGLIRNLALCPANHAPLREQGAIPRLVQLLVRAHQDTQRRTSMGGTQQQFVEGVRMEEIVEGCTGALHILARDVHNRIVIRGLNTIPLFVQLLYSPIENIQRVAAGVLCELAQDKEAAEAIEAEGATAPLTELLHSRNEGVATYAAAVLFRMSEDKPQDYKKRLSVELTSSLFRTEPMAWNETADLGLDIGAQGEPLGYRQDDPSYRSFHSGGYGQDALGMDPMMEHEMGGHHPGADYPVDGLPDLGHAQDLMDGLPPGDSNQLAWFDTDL
Description: AlphaScreen Assays of β-Catenin and BCL9 Interaction. Experiments were performed in white opaque 384-well plates from PerkinElmer (Waltham, MA), and the samples were read on a Biotek Synergy 2 plate reader (Winooski, VT) with excitation at 680 nm and emission at 570 nm. The standard AlphaScreen protocol was used with a sensitivity setting of 200. All dilutions were made in 1× assay buffer containing 25 mM Hepes (pH 7.4), 100 mM NaCl, 0.01% Triton X-100 and 0.1% BSA to minimize nonspecific interactions. For the competitive inhibition assays of β-catenin/BCL9 PPI, the negative control (equivalent to 0% inhibition) refers to 5.0 nM biotinylated BCL9, 50 nM His6-tagged β-catenin, and 10 μg/mL donor and acceptor beads in a final volume of 25 μL assay buffer, but no tested inhibitor present. The positive control (equivalent to 100% inhibition) refers to 5.0 nM biotinylated BCL9 and 10 μg/mL donor and acceptor beads in a final volume of 25 μL assay buffer.
For the β-catenin/BCL9 assay, 5 nM biotinylated BCL9 and 50 nM His6-tagged β-catenin were incubated in assay buffer for 30 min. Different concentrations of the tested inhibitor were added and incubated in 20 μL assay buffer for another 1 h. All of the assay plates were covered and gently mixed on an orbital shaker. The donor and acceptor beads were then added to the plates to a final concentration of 10 μg/mL in 25 μL assay buffer. The mixture was incubated for 1 h before detection. The IC50 value was determined by nonlinear least-square analysis of GraphPad Prism 8.0. The Ki values were derived from the IC50 values using a method reported by Wang and coworkers.^65 The equation used is Ki=[I]50/([L]50/Kd+[P]0/Kd+1) (Where [I]50 denotes the concentration of the free inhibitor at 50% inhibition, [L]50 is the concentration of the free labeled ligand at 50% inhibition, [P]0 is the concentration of the free protein at 0% inhibition, and Kd is the dissociation constant of the protein-ligand complex). All of the experiments were performed in triplicate and carried out in the presence of 1% DMSO for small-molecule inhibitors. Each compound was assayed at least by three independent experiments. The results were expressed as mean±standard deviation.

β-catenin/BCL9 PPI [2] = experiment: Cell-based co-IP, β-catenin/BCL9; conditions: HCT116 cells, 24 h
Description: (§1) Co-IP Experiments. HCT116 cancer cells with hyperactive β-catenin signaling at 1×10^6 cells/mL were treated with different concentrations of the inhibitor for 24 h. Cells were then lysed in buffer containing 50 mM Tris, pH 7.4, 150 mM NaCl, 1% Nonidet P-40, 2 mM EDTA and protease inhibitors. The cell lysates were pre-adsorbed to A/G plus agarose (sc-2003, Santa Cruz Biotechnology) at 4° C. for 1 h. Pre-adsorbed lysates were incubated with a specific primary antibody against β-catenin (610153, BD Biosciences) overnight at 4° C. A/G plus agarose was then added to the lysate mixture and incubated for 3 h. The beads were washed four times with buffer B (20 mM Tris pH 7.4, 150 mM NaCl, 0.1% NP-40) at 4° C. The bound protein was eluted by boiling in the SDS sample buffer and loaded onto 8% SDS polyacrylamide gel for electrophoretic analysis. Separated proteins were transferred onto nitrocellulose membranes for immunoblot analysis. The antibodies against BCL9 (ab37305, Abcam) and E-cadherin (610404, BD Biosciences) were incubated with the membranes, respectively. IRDye 680LT goat anti mouse IgG (827-11080, LiCOR) and IRDye 800CW goat anti rabbit IgG (926-32211, LiCOR) were used as the secondary antibodies. The images were detected by the Odyssey Infrared Imaging System (LiCOR). Experiments were performed in triplicate.

β-catenin/E-cadherin PPI = experiment: Cell-based co-IP, β-catenin/E-cadherin; conditions: HCT116 cells, 24 h; concentrations sufficient to disrupt β-catenin/BCL9 PPI
Description: as §1

[3] = test system: Wnt/β-catenin transactivation (TOPFlash) in SW480 cells; experiment: Wnt-responsive TOPFlash luciferase reporter assay; type: cell-based; conditions: 24 h
Description: (§2) Cell Transfection and Luciferase Assay. FuGENE6 (E269 Å, Promega) 96 well plate format was used for the transfection of SW480 cells according to the manufacturer's instruction. SW480 cells were co-transfected with 60 ng of the TOPFlash or FOPFlash firefly luciferase reporter gene and 40 ng of the Renilla luciferase pCMV-RL normalization reporter gene. Cells were cultured in DMEM and 10% FBS at 37° C. for 24 h, and then different concentrations of inhibitors or DMSO was added and incubated in DMEM with 5% FBS. After 24 h, the luciferase reporter activity was measured using the Dual-Glo system (E2940, Promega). Normalized luciferase activity in response to the treatment with inhibitors was compared with that obtained from the cells treated with DMSO. Experiments were performed in triplicate.

[4] = test system: FOPFlash reporter in SW480 cells; experiment: FOPFlash luciferase reporter assay; type: cell-based; conditions: testing concentrations
Description: as §2

[5] = test system: Wnt target genes Axin2, BCL9L, MMP7 in SW480 cells; experiment: Quantitative real-time PCR of Wnt target genes; type: cell-based, human; conditions: 24-h incubation
Description: Quantitative Real Time PCR analysis. SW480 cells at 1×10^6 cells/mL were treated with inhibitors at different concentrations for 24 h. Total RNAs were extracted with TRIzol (15596026, Life Technologies), and the cDNA was synthesized with the superscript III first-strand kit (18080-051, Invitrogen). qPCR experiments were performed using the iQ™ SYBR green supermix kit (170-8880, BIO-RAD) on an CFX96 Real Time System (BIO-RAD). The threshold cycle (CT) values were normalized to that of internal reference GAPDH. Experiments were performed in triplicate. The primer pairs are shown below

Axin2 = experiment: Western blot of Wnt target gene protein expression; type: cell-based; conditions: SW480 cells, 24-h incubation
Description: Western Blotting of Wnt Target Genes. SW480 cells at 1×10^6 cells/mL were treated with different concentrations of inhibitors for 24 h. Cells were lysed in buffer containing 50 mM Tris (pH 7.4), 150 mM NaCl, 1% Nonidet P-40, 0.1% SDS, 0.5% sodium deoxycholate, and protease inhibitors. After centrifugation at 12,000 rpm for 20 min at 4° C., the supernatant was boiling in the SDS sample buffer and loaded onto an 8% SDS polyacrylamide gel for electrophoretic analysis. Separated proteins were transferred onto nitrocellulose membranes for immunoblot analysis. The antibodies against Axin2 (MA5-15015, Thermo Fisher) and f-tubulin (sc-55529, Santa Cruz Biotechnology) were incubated with the membranes overnight at 4° C., respectively. IRDye 680LT goat anti-mouse IgG (827-11080, LiCOR) or IRDye 800CW goat anti-rabbit IgG (827-08365, LiCOR) was used as the secondary antibody. The images were detected by the Odyssey Infrared Imaging System (LiCOR). Experiments were performed in duplicate.

MCF10A cells = experiment: MTS cell growth inhibition, normal breast epithelial cells; type: cell-based, human; conditions: 72 h
Description: MTS Cell Growth Inhibition Experiments. Colorectal cancer cells (SW480 and HCT116) and triple negative breast cancer cells (MDA-MB-231 and MDA-MB-468) were seeded in 96-well plates at 5×10^3 cells/well in DMEM with 10% fetal bovine serum (FBS), maintained overnight at 37° C., and then incubated with the tested compounds at various concentrations in DMEM with 5% FBS. Human mammary epithelial MCF10A cells were seeded in 96-well plates at 1×10^4 cells/well in MEGM (CC-3150, Lonza) with 100 ng/mL cholera toxin, maintained overnight at 37° C., and incubated with the tested compounds at various concentrations. Cell viability was monitored after 72 h using a freshly prepared mixture of 1 part phenazine methosulfate (PMS, Sigma) solution (0.92 mg/mL) and 19 parts 3-(4,5-dimethylthiazol-2-yl)-5-(3-carboxymethoxyphenyl)-2-(4-sulfophenyl)-2H-tetrazolium (MTS, Promega) solution (2 mg/mL). Cells were incubated in 10 μL of this solution at 37° C. for 3 h, and the UV absorption at 490 nm (A490) was measured. The effect of each compound is expressed as the concentration required to reduce A490 by 50% (IC50) relative to DMSO-treated cells. Experiments were performed in triplicate.

full-length β-catenin, sequence (P35222 whole entry): as above

SMILES | pKi (β-catenin/BCL9 PPI [1]) | pIC50 (β-catenin/BCL9 PPI [1]) | also measured
CC(C)(C)C1CCC(c2cc(C(=O)N3CCC(Oc4cc(N5CCNCC5)ccc4C#N)CC3)ccc2O[C@@H]2CNC[C@H]2OCCOCCOCCNC(=O)CCCC[C@@H]2SCC3NC(=O)NC32)CC1.O=C(O)C(F)(F)F.O=C(O)C(F)(F)F (relative stereo) [Biotin-37, trans-N-(2-(2-(2-((4-(2-(cis- and trans-4-(tert-butyl)cyclohexyl)-4-(4-(2-cyano-5-(piperazin-1-yl)phenoxy)piperidine-1-carbonyl)phenoxy)pyrrolidin-3-yl)oxy)ethoxy)ethoxy)ethyl)-5-((4S)-2-oxohexahydro-1H-thieno[3,4-d]imidazol-4-yl)pentanamide ditrifluoroacetic acid] | – | – | binding with β-catenin (pull-down, Western blot) (full-length β-catenin): effectively bound with full-length β-catenin
CC(C)(C)C1CCN(c2cc(C(=O)N3CCC(Oc4cc(F)cc(N5CCNCC5)c4)CC3)ccc2O[C@H]2CCNC2)CC1 [Compound 27, (S)-(3-(4-(tert-butyl)piperidin-1-yl)-4-(pyrrolidin-3-yloxy)phenyl)(4-(3-fluoro-5-(piperazin-1-yl)phenoxy)piperidin-1-yl)methanone dihydrochloride] | ≥ 4.52 | ≥ 4.52 | –
CC1(O)CCN(c2cc(C(=O)N3CCC(Oc4cc(F)cc(N5CCNCC5)c4)CC3)ccc2O[C@H]2CCNC2)CC1 [Compound 28] | ≥ 4.70 | ≥ 4.70 | –
CC(C)(O)C1CCN(c2cc(C(=O)N3CCC(Oc4cc(F)cc(N5CCNCC5)c4)CC3)ccc2O[C@H]2CCNC2)CC1 [Compound 29, (4-(3-fluoro-5-(piperazin-1-yl)phenoxy)piperidin-1-yl)(3-(4-(2-hydroxypropan-2-yl)piperidin-1-yl)-4-(pyrrolidin-3-yloxy)phenyl)methanone] | ≥ 4.30 | ≥ 4.30 | –
CC(C)(C)[C@H]1CC[C@@H](c2cc(C(=O)N3CCC(Oc4cc(N5CCNCC5)ccc4C#N)CC3)ccc2O[C@H]2CCNC2)CC1 [Compound 44] | ≥ 5.70 | ≥ 5.70 | disruption of β-catenin/BCL9 interaction (co-IP) (β-catenin/BCL9 PPI [2]): effectively disrupted β-catenin/BCL9 interaction; effect on β-catenin/E-cadherin PPI (co-IP) (β-catenin/E-cadherin PPI): did not affect the β-catenin/E-cadherin PPI; pIC50 [3]: 5.59; FOPFlash luciferase activity [4]: not affected; effect on house-keeper gene HPRT (qPCR) [5]: no effect; transcription of Wnt target genes Axin2, BCL9L, MMP7 (qPCR) [5]: downregulated transcriptions; protein expression level of Axin2 (Axin2): significant decreased; selectivity over normal breast epithelial MCF10A cells (MCF10A cells): > 4 fold
CC(C)(C)[C@H]1CC[C@H](c2cc(C(=O)N3CCC(Oc4cc(N5CCNCC5)ccc4C#N)CC3)ccc2O[C@H]2CCNC2)CC1 [Compound 45] | ≥ 5.40 | ≥ 5.40 | –

Source: US20240208940A1, “SMALL-MOLECULE INHIBITORS FOR BETA-CATENIN/BCELL LYMPHOMA 9 PROTEIN-PROTEIN INTERACTION” (H. LEE MOFFITT CANCER CENTER AND RESEARCH INSTITUTE, INC., priority 2021, published 2024)
